From article PMC6416464 (Drug Metabolism Letters, 2018)
Read-outs that look alike come from different tables or passages of the source.

Assays:
CYP2C8 = molecular target: T1, CYP2C8 (Homo sapiens, UniProt P10632); test: CYP inhibition in human liver microsomes, CYP2C8; conditions: for % Inhibition of Control Activity CYP2C8: NI: No Inhibitin
T1 sequence (P10632 1-490): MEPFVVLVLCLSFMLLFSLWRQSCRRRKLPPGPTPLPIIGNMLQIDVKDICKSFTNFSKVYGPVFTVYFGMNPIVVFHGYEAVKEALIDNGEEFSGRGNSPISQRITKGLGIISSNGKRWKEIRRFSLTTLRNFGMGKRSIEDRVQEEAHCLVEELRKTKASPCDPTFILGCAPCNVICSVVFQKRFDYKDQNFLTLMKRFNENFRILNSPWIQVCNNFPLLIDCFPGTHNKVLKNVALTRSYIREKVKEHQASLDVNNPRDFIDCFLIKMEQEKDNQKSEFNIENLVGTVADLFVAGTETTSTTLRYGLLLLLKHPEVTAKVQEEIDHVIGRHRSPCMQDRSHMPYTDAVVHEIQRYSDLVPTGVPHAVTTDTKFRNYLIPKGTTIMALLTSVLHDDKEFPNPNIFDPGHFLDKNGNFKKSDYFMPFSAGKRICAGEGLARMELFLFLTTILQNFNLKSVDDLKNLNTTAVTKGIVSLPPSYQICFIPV

rCYP2C9 = rCYP2C9 (Homo sapiens, UniProt P11712); test: Metabolic stability / reaction phenotyping with recombinant human CYP2C9; conditions: for % Metabolized at 30 min Incubation with Human Liver Fractions/Enzymes rCYP2C9: 1 µM test compound, 100 pmol/mL
Chain of rCYP2C9 (P11712 whole entry): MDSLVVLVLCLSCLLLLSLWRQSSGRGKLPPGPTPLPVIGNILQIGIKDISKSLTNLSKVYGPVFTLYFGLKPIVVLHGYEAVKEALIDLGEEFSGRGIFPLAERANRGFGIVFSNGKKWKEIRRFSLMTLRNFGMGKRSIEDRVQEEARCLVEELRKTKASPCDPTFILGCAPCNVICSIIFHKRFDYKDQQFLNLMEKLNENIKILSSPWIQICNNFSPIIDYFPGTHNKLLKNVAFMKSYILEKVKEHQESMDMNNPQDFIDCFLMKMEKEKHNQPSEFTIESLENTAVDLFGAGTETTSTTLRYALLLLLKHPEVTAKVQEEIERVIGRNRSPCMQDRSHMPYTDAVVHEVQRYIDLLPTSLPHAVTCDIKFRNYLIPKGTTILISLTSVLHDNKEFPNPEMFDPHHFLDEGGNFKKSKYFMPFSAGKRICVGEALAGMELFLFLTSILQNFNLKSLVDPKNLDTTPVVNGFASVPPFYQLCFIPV

CYP3A4 [1] = molecular target: T2, CYP3A4 (Homo sapiens, UniProt P08684); test: in vitro; conditions: microsomes, pH 7.4
T2 sequence (P08684 2-503): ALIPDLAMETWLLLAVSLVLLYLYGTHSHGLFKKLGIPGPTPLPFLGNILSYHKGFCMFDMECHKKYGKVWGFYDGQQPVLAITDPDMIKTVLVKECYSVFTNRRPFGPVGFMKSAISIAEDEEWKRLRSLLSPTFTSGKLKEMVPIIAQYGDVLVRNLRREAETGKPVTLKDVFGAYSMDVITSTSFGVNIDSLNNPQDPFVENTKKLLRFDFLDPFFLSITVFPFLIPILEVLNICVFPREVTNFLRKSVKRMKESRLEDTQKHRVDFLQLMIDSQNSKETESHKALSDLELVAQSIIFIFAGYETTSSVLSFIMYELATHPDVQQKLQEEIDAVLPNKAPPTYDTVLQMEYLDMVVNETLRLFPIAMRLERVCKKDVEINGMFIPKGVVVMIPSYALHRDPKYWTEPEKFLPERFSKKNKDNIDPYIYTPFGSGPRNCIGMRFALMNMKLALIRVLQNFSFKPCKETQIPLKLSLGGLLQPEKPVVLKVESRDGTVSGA

CYP3A4 [2] = molecular target: T2, CYP3A4; test: in vitro; conditions: microsomes, pH 7.4, % Inhibition of Control Activity CYP3A4 (substrate, testosterone)
rCYP2C8 = molecular target: T3, rCYP2C8 (Homo sapiens, UniProt P10632); test: Metabolic stability / reaction phenotyping with recombinant human CYP2C8; conditions: for % Metabolized at 30 min Incubation with Human Liver Fractions/Enzymes rCYP2C8: 1 µM test compound, 100 pmol/mL
T3 sequence (P10632 1-490): T1 sequence (P10632 1-490)

rCYP3A4 = rCYP3A4 (Homo sapiens, UniProt P08684)
Chain of rCYP3A4 (P08684 whole entry): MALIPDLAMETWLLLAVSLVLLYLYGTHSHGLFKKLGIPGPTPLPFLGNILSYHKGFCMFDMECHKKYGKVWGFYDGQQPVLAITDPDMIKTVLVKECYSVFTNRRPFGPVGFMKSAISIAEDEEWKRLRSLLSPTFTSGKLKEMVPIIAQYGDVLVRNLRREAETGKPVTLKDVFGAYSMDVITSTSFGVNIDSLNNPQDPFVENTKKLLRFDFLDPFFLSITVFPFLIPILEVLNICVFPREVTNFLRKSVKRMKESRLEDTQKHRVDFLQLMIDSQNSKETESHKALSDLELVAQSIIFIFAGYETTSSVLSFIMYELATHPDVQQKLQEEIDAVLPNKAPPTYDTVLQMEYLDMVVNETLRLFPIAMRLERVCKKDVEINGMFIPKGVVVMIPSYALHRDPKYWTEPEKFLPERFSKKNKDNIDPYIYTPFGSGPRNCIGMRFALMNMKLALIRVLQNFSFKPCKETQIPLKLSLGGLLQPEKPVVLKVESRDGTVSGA

rCYP2C19 = rCYP2C19 (Homo sapiens, UniProt P33261); test: Metabolic stability / reaction phenotyping with recombinant human CYP2C19; conditions: for % Metabolized at 30 min Incubation with Human Liver Fractions/Enzymes rCYP2C19: 1 µM test compound, 100 pmol/mL
Chain of rCYP2C19 (P33261 whole entry): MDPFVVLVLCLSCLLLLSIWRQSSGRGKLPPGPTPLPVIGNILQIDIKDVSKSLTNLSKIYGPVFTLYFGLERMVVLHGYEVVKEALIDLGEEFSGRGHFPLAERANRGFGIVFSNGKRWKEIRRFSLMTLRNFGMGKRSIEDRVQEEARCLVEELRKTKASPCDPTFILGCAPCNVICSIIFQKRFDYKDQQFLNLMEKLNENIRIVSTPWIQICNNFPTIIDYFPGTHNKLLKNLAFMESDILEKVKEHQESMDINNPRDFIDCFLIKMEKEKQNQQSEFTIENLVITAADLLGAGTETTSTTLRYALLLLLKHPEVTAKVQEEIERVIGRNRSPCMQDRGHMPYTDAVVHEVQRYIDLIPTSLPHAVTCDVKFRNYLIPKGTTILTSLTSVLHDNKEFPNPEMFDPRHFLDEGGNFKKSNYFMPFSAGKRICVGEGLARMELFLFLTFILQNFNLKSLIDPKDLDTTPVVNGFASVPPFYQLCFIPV

[3] = Metabolic stability, incubation with human liver cytosol; type: in vitro ADME; conditions: 1 µM test compound, 1 mg/mL protein
rCYP2D6 = rCYP2D6 (Homo sapiens, UniProt P10635); test: Metabolic stability / reaction phenotyping with recombinant human CYP2D6; conditions: for % Metabolized at 30 min Incubation with Human Liver Fractions/Enzymes rCYP2D6: 1 µM test compound, 100 pmol/mL
Chain of rCYP2D6 (P10635 whole entry): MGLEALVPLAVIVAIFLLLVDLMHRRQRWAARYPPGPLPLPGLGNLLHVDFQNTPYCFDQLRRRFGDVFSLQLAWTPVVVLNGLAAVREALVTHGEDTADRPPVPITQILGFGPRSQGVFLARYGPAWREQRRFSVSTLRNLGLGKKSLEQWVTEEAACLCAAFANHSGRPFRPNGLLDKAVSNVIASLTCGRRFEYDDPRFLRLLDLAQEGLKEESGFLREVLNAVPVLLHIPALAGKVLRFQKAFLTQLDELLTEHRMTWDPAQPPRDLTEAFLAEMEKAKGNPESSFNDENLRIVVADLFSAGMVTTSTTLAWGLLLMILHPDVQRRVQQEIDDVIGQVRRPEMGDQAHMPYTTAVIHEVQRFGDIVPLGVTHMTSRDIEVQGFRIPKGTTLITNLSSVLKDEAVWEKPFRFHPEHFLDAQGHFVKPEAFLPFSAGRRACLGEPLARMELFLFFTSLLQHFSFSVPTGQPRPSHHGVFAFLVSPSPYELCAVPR

rCYP1A2 = molecular target: T4, rCYP1A2 (Homo sapiens, UniProt P05177); test: Metabolic stability / reaction phenotyping with recombinant human CYP1A2; conditions: for % Metabolized at 30 min Incubation with Human Liver Fractions/Enzymes rCYP1A2: 1 µM test compound, 100 pmol/mL
T4 sequence (P05177 1-516): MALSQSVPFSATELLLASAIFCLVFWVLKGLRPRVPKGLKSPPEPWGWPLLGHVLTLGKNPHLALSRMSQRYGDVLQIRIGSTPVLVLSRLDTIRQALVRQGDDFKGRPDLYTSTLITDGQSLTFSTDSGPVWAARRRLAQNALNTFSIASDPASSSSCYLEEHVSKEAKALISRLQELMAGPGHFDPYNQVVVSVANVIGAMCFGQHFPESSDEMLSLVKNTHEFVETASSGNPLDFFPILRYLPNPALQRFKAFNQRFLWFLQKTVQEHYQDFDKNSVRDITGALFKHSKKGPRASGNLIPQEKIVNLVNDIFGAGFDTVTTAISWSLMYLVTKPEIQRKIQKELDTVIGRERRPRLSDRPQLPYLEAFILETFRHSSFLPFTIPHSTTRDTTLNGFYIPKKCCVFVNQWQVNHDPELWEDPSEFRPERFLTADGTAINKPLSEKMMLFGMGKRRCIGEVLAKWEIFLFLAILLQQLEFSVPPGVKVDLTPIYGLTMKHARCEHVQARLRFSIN

[4] = Metabolic stability, incubation with human liver microsomes; conditions: 1 µM test compound, 0.5 mg/mL protein
CYP2C9 = CYP2C9 (Homo sapiens, UniProt P11712); test: CYP inhibition in human liver microsomes, CYP2C9; conditions: HLM; for % Inhibition of Control Activity CYP2C9: NI: No Inhibitin
Chain of CYP2C9 (P11712 whole entry): as the sequence (P11712 whole entry) above

CYP3A4 [5] = molecular target: T2, CYP3A4; conditions: microsomes
CYP2D6 = CYP2D6 (Homo sapiens, UniProt P10635); test: CYP inhibition in human liver microsomes, CYP2D6; conditions: inhibitor 10 µM; HLM; NI: No Inhibitin; 10 µM
Chain of CYP2D6 (P10635 whole entry): as the sequence (P10635 whole entry) above

[6] = cited from earlier work
CYP2C19 = CYP2C19 (Homo sapiens, UniProt P33261); test: CYP inhibition in human liver microsomes, CYP2C19; conditions: inhibitor 10 µM; HLM; NI: No Inhibitin
Chain of CYP2C19 (P33261 whole entry): as the sequence (P33261 whole entry) above

CYP1A2 = molecular target: T5, CYP1A2 (Homo sapiens, UniProt P05177); test: CYP inhibition in human liver microsomes, CYP1A2; conditions: inhibitor 10 µM; HLM; NI: No Inhibitin
T5 sequence (P05177 1-516): T4 sequence (P05177 1-516)

[7] = human, human liver microsomes, pH 7.4, probe paclitaxel
[8] = human, recombinant human CYP2C8, 1 µM, pH 7.4
[9] = human, recombinant enzyme, pH 7.4
[10] = human, recombinant human CYP2C19, 1 µM, pH 7.4
[11] = human, recombinant human CYP2D6, 1 µM, pH 7.4
[12] = human, recombinant human CYP1A2, 1 µM, pH 7.4

**Q.** Which results are given for `O=C1Cc2cc(CCN3CCN(c4nsc5ccccc45)CC3)c(Cl)cc2N1` [Ziprasidone, ziprasidone, reference compound]?
**A.** inhibition at 2 µM (CYP2C8; [7]): < 0%; inhibition at 10 µM (CYP2C8; [7]): 12%; % Metabolized at 30 min Incubation with Human Liver Fractions/Enzymes rCYP2C9 (rCYP2C9): 0.00%; inhibition at 2 µM (CYP3A4 [1]): 22%; inhibition at 10 µM (CYP3A4 [1]): 31.1%; inhibition at 2 µM (CYP3A4 [2]): 8.3%; % Metabolized at 30 min Incubation with Human Liver Fractions/Enzymes rCYP2C8 (rCYP2C8): 22.84%; % Contribution of CYP Enzymes (fmCYP) in Metabolism, CYP2C8 (rCYP2C8; [8]): 8.96%; Predicted Microsomal Clint, CYP2C8 (rCYP2C8; [8]): 5.532 µL/min/mg Protein; rCYP Clint, CYP2C8 (rCYP2C8; [8]): 0.086 µL/min/pmol; Predicted Microsomal Clint, CYP3A4 (rCYP3A4; human, pH 7.4): 53.530 µL/min/mg Protein; % Metabolized at 30 min Incubation with Human Liver Fractions/Enzymes rCYP3A4 (rCYP3A4; human, recombinant enzyme, 0.5 h, pH 7.4): 76.47%; % Contribution of CYP Enzymes (fmCYP) in Metabolism, CYP3A4 (rCYP3A4; [9]): 86.67%; rCYP Clint, CYP3A4 (rCYP3A4; [9]): 0.482 µL/min/pmol; % Metabolized at 30 min Incubation with Human Liver Fractions/Enzymes rCYP2C19 (rCYP2C19): 21.17%; % Contribution of CYP Enzymes (fmCYP) in Metabolism, CYP2C19 (rCYP2C19; [10]): 2.44%; Predicted Microsomal Clint, CYP2C19 (rCYP2C19; [10]): 1.507 µL/min/mg Protein; rCYP Clint, CYP2C19 (rCYP2C19; [10]): 0.079 µL/min/pmol; % Metabolized at 30 min Incubation with Human Liver Fractions/Enzymes Cytosol [3]: 10.86%; % Metabolized at 30 min Incubation with Human Liver Fractions/Enzymes rCYP2D6 (rCYP2D6): 3.73%; % Contribution of CYP Enzymes (fmCYP) in Metabolism, CYP2D6 (rCYP2D6; [11]): 0.21%; Predicted Microsomal Clint, CYP2D6 (rCYP2D6; [11]): 0.127 µL/min/mg Protein; rCYP Clint, CYP2D6 (rCYP2D6; [11]): 0.013 µL/min/pmol; % Metabolized at 30 min Incubation with Human Liver Fractions/Enzymes rCYP1A2 (rCYP1A2): 5.98%; % Contribution of CYP Enzymes (fmCYP) in Metabolism, CYP1A2 (rCYP1A2; [12]): 1.73%; Predicted Microsomal Clint, CYP1A2 (rCYP1A2; [12]): 1.069 µL/min/mg Protein; rCYP Clint, CYP1A2 (rCYP1A2; [12]): 0.021 µL/min/pmol; % Metabolized at 30 min Incubation with Human Liver Fractions/Enzymes HLM [4]: 83.11%; % Inhibition of Control Activity CYP2C9 (CYP2C9; inhibitor 10 µM, 10 µM): 1.44%; % Inhibition of Control Activity CYP3A4 (substrate, testosterone) (CYP3A4 [5]; human, 10 µM, pH 7.4): 33.06%; % Inhibition of Control Activity CYP2D6 (CYP2D6): 11.70%

**Q.** For triclabendazole sulfone, which “% Inhibition of Control Activity CYP2C8” value (CYP2C8; inhibitor 2 µM, HLM) is on record?
**A.** Its value is 65.36%.

**Q.** And the “% Inhibition of Control Activity CYP2C8” value (CYP2C8; inhibitor 10 µM, HLM)?
**A.** The value was 92.88%.

**Q.** And the IC50 (CYP2C8; read-out: IC50 CYP 2C8, HLM)?
**A.** Its IC50 is 1050 nM.

**Q.** And the “Predicted Microsomal Clint, CYP2C9” value (rCYP2C9)?
**A.** The value was 130.447 µL/min/mg Protein.

**Q.** And the “% Metabolized at 30 min Incubation with Human Liver Fractions/Enzymes rCYP2C9” value (rCYP2C9)?
**A.** The value was 98.31%.

**Q.** And the “rCYP Clint, CYP2C9” value (rCYP2C9; human, recombinant enzyme)?
**A.** The value was 1.359 µL/min/pmol.

**Q.** What about the “% Contribution of CYP Enzymes (fmCYP) in Metabolism, CYP2C9” value (rCYP2C9; recombinant enzyme) of the same compound?
**A.** Its value is 97.11%.

**Q.** And the “% Metabolized at 30 min Incubation with Human Liver Fractions/Enzymes rCYP2C8” value (rCYP2C8)?
**A.** The value was 0.00%.

**Q.** And the “Predicted Microsomal Clint, CYP3A4” value (rCYP3A4)?
**A.** The value was 3.591 µL/min/mg Protein.

**Q.** What about the “% Metabolized at 30 min Incubation with Human Liver Fractions/Enzymes rCYP3A4” value (rCYP3A4; 1 µM test compound, 100 pmol/mL, 30 min) of the same compound?
**A.** Its value is 9.25%.

**Q.** What about the “rCYP Clint, CYP3A4” value (rCYP3A4; human, recombinant enzyme) of the same compound?
**A.** Its value is 0.032 µL/min/pmol.

**Q.** And the “% Contribution of CYP Enzymes (fmCYP) in Metabolism, CYP3A4” value (rCYP3A4; recombinant enzyme)?
**A.** Its value is 2.67%.

**Q.** What about the “Predicted Microsomal Clint, CYP2C19” value (rCYP2C19) of the same compound?
**A.** The value was 0.228 µL/min/mg Protein.

**Q.** And the “% Metabolized at 30 min Incubation with Human Liver Fractions/Enzymes rCYP2C19” value (rCYP2C19)?
**A.** Its value is 3.53%.

**Q.** And the “rCYP Clint, CYP2C19” value (rCYP2C19; human, recombinant enzyme)?
**A.** The value was 0.012 µL/min/pmol.

**Q.** What about the “% Contribution of CYP Enzymes (fmCYP) in Metabolism, CYP2C19” value (rCYP2C19; recombinant enzyme) of the same compound?
**A.** Its value is 0.17%.

**Q.** What about the Cmax ([6]; human patients at therapeutic doses of triclabendazole) of the same compound?
**A.** The Cmax was 2290 nM.

**Q.** And the half-life ([6]; humans)?
**A.** Its half-life is 11 to 12 h.

**Q.** And the “% Metabolized at 30 min Incubation with Human Liver Fractions/Enzymes Cytosol” value [3]?
**A.** Its value is 0.00%.

**Q.** And the “% Inhibition of Control Activity CYP2C19” value (CYP2C19)?
**A.** Its value is 5.05%.

**Q.** And the “% Metabolized at 30 min Incubation with Human Liver Fractions/Enzymes rCYP2D6” value (rCYP2D6)?
**A.** Its value is 0.00%.

**Q.** And the “Predicted Microsomal Clint, CYP1A2” value (rCYP1A2)?
**A.** Its value is 0.069 µL/min/mg Protein.

**Q.** What about the “% Metabolized at 30 min Incubation with Human Liver Fractions/Enzymes rCYP1A2” value (rCYP1A2) of the same compound?
**A.** The value was 0.40%.

**Q.** And the “rCYP Clint, CYP1A2” value (rCYP1A2; human, recombinant enzyme)?
**A.** Its value is 0.001 µL/min/pmol.

**Q.** What about the “% Contribution of CYP Enzymes (fmCYP) in Metabolism, CYP1A2” value (rCYP1A2; recombinant enzyme) of the same compound?
**A.** The value was 0.05%.

**Q.** And the “% Metabolized at 30 min Incubation with Human Liver Fractions/Enzymes HLM” value [4]?
**A.** Its value is 52.20%.

**Q.** And the “% Inhibition of Control Activity CYP2C9” value (CYP2C9; inhibitor 2 µM)?
**A.** Its value is 78.78%.

**Q.** What about the “% Inhibition of Control Activity CYP2C9” value (CYP2C9; inhibitor 10 µM) of the same compound?
**A.** Its value is 96.15%.

**Q.** What about the IC50 (CYP2C9; read-out: IC50 CYP 2C9) of the same compound?
**A.** Its IC50 is 690 nM.

**Q.** What about the “% Inhibition of Control Activity CYP3A4 (substrate, testosterone)” value (CYP3A4 [5]; 2 µM) of the same compound?
**A.** Its value is 4.09%.

**Q.** And the “% Inhibition of Control Activity CYP3A4 (substrate, testosterone)” value (CYP3A4 [5]; 10 µM)?
**A.** Its value is 8.63%.

**Q.** What about the “% Inhibition of Control Activity CYP1A2” value (CYP1A2) of the same compound?
**A.** Its value is 8.60%.
